The results in this text go back to the supplement of paper PMC4862054.

Assay [1] concerns BT-474. As to conditions: 72 h. The gist of the method: (§1)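 Breast cancer cell lines (20 µl suspension) were seeded into 384-well plates holding compound at 5 concentrations in 10-fold steps over a compound-specific 10,000-fold range, then incubated 72 h. Cell death was read first by CellTox Green fluorescence (485/520 nm), then viability by CellTiter-Glo luminescence after 10 min at room temperature. Each plate was normalised to 0.1 % DMSO and a positive kill control. EC50 was fitted from the dose-response curves and censored at the top concentration.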

Assay [2] deals with HDQ-P1. As to conditions: 72 h. The gist of the method: as §1
For assay [3], the system named is MDA-MB-468. As to conditions: 72 h. The procedure, abridged: as §1
Assay [4] relates to DU-4475. Put plainly: normalised viability (% of control), CellTiter-Blue; higher = more viable cells (about 100 = DMSO control). As to conditions: incubation time: 72 h. The protocol: (§2)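 DSRT, CellTiter-Blue viability, 72 h incubation. Signal is normalised to DMSO and benzethonium chloride controls. Value is the normalised response at dose 3.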
A general note: The colour change of resazurin is a common sign of viable cells or microbes.

Assay [5] has as its system BT-474. Described as above. As to conditions: incubation time: 72 h. Here is the method: as §2
For assay [6], the system named is CAL-148. The assay is described as above. As to conditions: incubation time: 72 h. The protocol: as §2
The subject of assay [7] is CAL-85-1. The description is as above. As to conditions: incubation time: 72 h. The protocol:
as §2

The subject of assay [8] is MFM-223. The assay is described as above. As to conditions: incubation time: 72 h. The protocol: as §2
The subject of assay [9] is SK-BR-3. Described as above. As to conditions: incubation time: 72 h. Here is the method:
as §2

Assay [10] has as its system HCC1937. The description is as above. As to conditions: incubation time: 72 h. Here is the method:
as §2

The test system of assay [11] is BT-549. The assay is described as above. As to conditions: incubation time: 72 h. Here is the method:
as §2

Assay [12] deals with HDQ-P1. The description is as above. As to conditions: incubation time: 72 h. Here is the method:
as §2

Assay [13] relates to Hs578T. The description is as above. As to conditions: incubation time: 72 h. The protocol:
as §2

The subject of assay [14] is HCC1143. The description is as above. As to conditions: incubation time: 72 h. Here is the method:
as §2

The subject of assay [15] is MDA-MB-231. The assay is described as above. As to conditions: incubation time: 72 h. Here is the method:
as §2

Assay [16] relates to HCC1599. Described as above. As to conditions: incubation time: 72 h. The protocol: as §2
For assay [17], the system named is MDA-MB-453. The assay is described as above. As to conditions: incubation time: 72 h. Here is the method: as §2
Assay [18] concerns CAL-51. Described as above. As to conditions: incubation time: 72 h. The protocol: as §2
Assay [19] concerns CAL-120. Described as above. As to conditions: incubation time: 72 h. Here is the method: as §2
Assay [20] concerns MDA-MB-468. Described as above. As to conditions: incubation time: 72 h. Here is the method:
as §2

In assay [21] the test system is MDA-MB-436. The description is as above. As to conditions: incubation time: 72 h. The protocol: as §2
Assay [22] has as its system SK-BR-3. Put plainly: normalised viability (% of control), CellTiter-Blue; higher = more viable cells (about 100 = DMSO control). As to conditions: incubation time: 72 h. The procedure, abridged:
(§3)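 Compound dissolved in 5 µl medium was pre-loaded into 384-well plates, and breast cancer cell lines in 20 µl suspension were seeded on top and incubated 72 h. After adding 2.5 µl CellTiter-Blue reagent for 2 h at 37 °C, fluorescence was read at 560/590 nm. Plates were normalised to vehicle (100) and a positive kill control (0), with Z'-factor quality control. Each value is normalised viability at a single listed concentration from the series.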
The source holds these as a separate data set.

Assay [23] concerns BT-549. The assay is described as above. As to conditions: incubation time: 72 h. The procedure, abridged: as §3
This is another data set of the same source.

Assay [24] deals with MDA-MB-453. The assay is described as above. As to conditions: incubation time: 72 h. The procedure, abridged: as §3
This is another data set of the same source.

For assay [25], the system named is CAL-51. The assay is described as above. As to conditions: incubation time: 72 h. The gist of the method:
as §3
This is another data set of the same source.

The subject of assay [26] is CAL-120. The description is as above. As to conditions: incubation time: 72 h. The procedure, abridged: as §3
This is another data set of the same source.

Assay [27] concerns MDA-MB-468. Described as above. As to conditions: incubation time: 72 h. The procedure, abridged: as §3
This is another data set of the same source.

On to `Cc1ccc([N+](=O)[O-])cc1S(=O)(=O)N(C)/N=C/c1cnc2ccc(Br)cn12` [PIK-75], for which the entries for the “EC50, CellTiter-Glo” value in assay [1], in assay [2] and in [3] were 26.1 nM, 32.5 nM and 27.4 nM, respectively.

With `CC(=O)c1c(C)c2cnc(Nc3ccc(N4CCNCC4)cn3)nc2n(C2CCCC2)c1=O` [Palbociclib], the “EC50, CellTiter-Glo” value in [1] worked out at 352 nM; in assay [3], 181 nM.

In the case of `CC[C@@H]1C(=O)OC[C@@H]1Cc1cncn1C` [Pilocarpine], the normalised viability in assay [4] (40 nM) worked out at 108%; in assay [5] (400 nM), 116%; in assay [6] (40 nM), 97.4%; in assay [7] (40 nM), 98%; in assay [8] (400 nM) it was 92.8%; in assay [9] (400 nM), 103%. Also, the normalised viability in assay [10] (400 nM) is 95.1%; in assay [11] (400 nM), 111%; in [12] (40 nM) it was 108%; in [13] (400 nM), 110%; in assay [14] (400 nM), 90.1%; in assay [15] (400 nM), 93.3%. Moreover, the normalised viability in assay [16] (400 nM) worked out at 99.6%; in assay [17] (40 nM) it was 102%; in assay [18] (40 nM) it was 102%; in assay [19] (400 nM) it was 107%; in assay [20] (400 nM) it was 99.6%; in assay [21] (400 nM), 105%. The normalised viability in assay [22] (40 nM) is 106%; in [22] (4000 nM) it was 115%; in assay [22] (40000 nM), 136%; in assay [23] (40 nM) it was 95.5%; in [23] (4000 nM), 114%; in assay [23] (40000 nM), 100%. The normalised viability in [24] (12 nM) came out at 118%; in assay [24] (120 nM), 93.5%; in assay [24] (400 nM), 100%; in assay [25] (12 nM) it was 110%; in [25] (120 nM) it was 103%; in assay [25] (400 nM), 98.2%. Also, the normalised viability in [26] (40 nM) came to 85.2%; in [26] (4000 nM) it was 107%; in assay [26] (40000 nM) it was 113%; in assay [27] (40 nM), 95.2%; in assay [27] (4000 nM) it was 99%; in assay [27] (40000 nM), 109%.

`COc1cc(F)c(F)c(Nc2ccc(I)cc2F)c1NS(=O)(=O)C1(C[C@H](O)CO)CC1` [RDEA119]: the normalised viability came to 86% in assay [4] (10 nM); 98.7% in assay [5] (100 nM); 93.6% in assay [6] (10 nM); 97.3% in assay [7] (10 nM); 85% in assay [8] (100 nM); 90.7% in assay [9] (100 nM). For the same compound, the normalised viability in assay [10] (100 nM) is 87.7%; in assay [11] (100 nM), 77.4%; in assay [12] (10 nM), 74.8%; in assay [13] (100 nM) it was 76%; in assay [14] (100 nM), 90.8%; in assay [15] (100 nM), 45%. In addition, the normalised viability in assay [16] (100 nM) is 87.4%; in [17] (10 nM) it was 78.3%; in [18] (10 nM), 91.2%; in [19] (100 nM), 93.7%; in assay [20] (100 nM) it was 86.1%; in assay [21] (100 nM), 90.4%. The normalised viability came out at 110% in assay [22] (10 nM); 81.8% in assay [22] (1000 nM); 100% in assay [22] (10000 nM); 98.7% in [23] (10 nM); 87.5% in assay [23] (1000 nM); 66.4% in assay [23] (10000 nM). The normalised viability amounted to 87.9% in assay [24] (3 nM); 95.5% in [24] (30 nM); 98.7% in [24] (100 nM); 97% in [25] (3 nM); 84.5% in assay [25] (30 nM); 81.2% in assay [25] (100 nM). For the same compound, the normalised viability in [26] (10 nM) came out at 103%; in assay [26] (1000 nM), 64.5%; in assay [26] (10000 nM) it was 47.3%; in assay [27] (10 nM), 94.2%; in assay [27] (1000 nM), 78.3%; in assay [27] (10000 nM) it was 51%.

`COc1cc(F)c(F)c(Nc2ccc(I)cc2F)c1NS(=O)(=O)C1(C[C@H](O)CO)CC1` [Refametinib]: the “EC50, CellTiter-Glo” value was 644 nM in assay [1], 119 nM in assay [2] and 2240 nM in assay [3].
